Experimental data published in ChEMBL document CHEMBL1201862, “PubChem BioAssay data set” (2004).
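Results reflect a 48-hour exposure of cells in 96-well plates to compound at five concentrations. Here, GI50 denotes the concentration required for 50% inhibition of growth.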 Active and inactive are the calls of the source. Rule as the data show it: active = GI50 up to about 1.1 µM and inactive = higher.

What was measured:
Experiment in all cases: NCI-60 cell line screen, 48 h
OVCAR-8 = system: OVCAR-8
SF-539 = system: SF-539
RPMI-8226 = system: RPMI-8226
A549 = system: A549
ACHN = system: ACHN
UO-31 = system: UO-31
U-251 = system: U-251
NCI-H460 = system: NCI-H460
SK-MEL-5 = system: SK-MEL-5
IGROV-1 = system: IGROV-1
HOP-92 = system: HOP-92
HT-29 = system: HT-29
CAKI-1 = system: CAKI-1
HL-60 = system: HL-60
KM12 = system: KM12
SK-MEL-2 = system: SK-MEL-2
OVCAR-5 = system: OVCAR-5
SNB-19 = system: SNB-19
SNB-75 = system: SNB-75
COLO 205 = system: COLO 205

| Structure (SMILES) | GI50 (OVCAR-8) | GI50 (SF-539) | GI50 (RPMI-8226) | GI50 (A549) | GI50 (ACHN) | GI50 (UO-31) | GI50 (U-251) | GI50 (NCI-H460) | GI50 (SK-MEL-5) | GI50 (IGROV-1) | GI50 (HOP-92) | GI50 (HT-29) | GI50 (CAKI-1) | GI50 (HL-60) | GI50 (KM12) | GI50 (SK-MEL-2) | GI50 (OVCAR-5) | GI50 (SNB-19) | GI50 (SNB-75) | GI50 (COLO 205) |
| --- | --- | --- | --- | --- | --- | --- | --- | --- | --- | --- | --- | --- | --- | --- | --- | --- | --- | --- | --- | --- |
| C=CCNC(=O)CN(CC(=O)OC)C1CCCCC1N(CC(=O)OC)CC(=O)OC (stereo unspecified) | > 100 µM (inactive) | > 100 µM (inactive) | > 100 µM (inactive) | > 100 µM (inactive) | > 100 µM (inactive) | > 100 µM (inactive) | > 100 µM (inactive) | > 100 µM (inactive) | > 100 µM (inactive) | > 100 µM (inactive) | > 100 µM (inactive) | > 100 µM (inactive) | > 100 µM (inactive) | > 100 µM (inactive) | > 100 µM (inactive) | > 100 µM (inactive) | > 100 µM (inactive) | > 100 µM (inactive) | – | – |
| CC1OC(CO)(n2cnc3c(N)ncnc32)C(O)C1O (stereo unspecified) | > 100 µM (inactive) | > 100 µM (inactive) | > 100 µM (inactive) | > 100 µM (inactive) | – | > 100 µM (inactive) | > 100 µM (inactive) | > 100 µM (inactive) | > 100 µM (inactive) | > 100 µM (inactive) | > 100 µM (inactive) | > 100 µM (inactive) | > 100 µM (inactive) | > 100 µM (inactive) | > 100 µM (inactive) | > 100 µM (inactive) | > 100 µM (inactive) | > 100 µM (inactive) | > 100 µM (inactive) | > 100 µM (inactive) |
| O=C1C(Cl)N(c2ccccc2Cl)C1c1c[nH]c2ccccc12 (stereo unspecified) | > 100 µM (inactive) | > 100 µM (inactive) | > 100 µM (inactive) | > 100 µM (inactive) | – | > 100 µM (inactive) | > 100 µM (inactive) | > 100 µM (inactive) | > 100 µM (inactive) | > 100 µM (inactive) | > 100 µM (inactive) | > 100 µM (inactive) | – | > 100 µM (inactive) | > 100 µM (inactive) | > 100 µM (inactive) | – | > 100 µM (inactive) | 86.9 µM (inactive) | > 100 µM (inactive) |
| C=C(/C=C/C=C(\C)CCC=C(C)C)[C@@H]1CC[C@]2([C@H](CCCO)/C(=C(/C)C=O)CC[C@]2(C)O)[C@@H]1O | 20.6 µM (inactive) | 12.6 µM (inactive) | – | 13.3 µM (inactive) | > 100 µM (inactive) | 19.5 µM (inactive) | 14.9 µM (inactive) | 9.71 µM (inactive) | 22.6 µM (inactive) | 32.2 µM (inactive) | < 0.01 µM (active) | 15.8 µM (inactive) | 28 µM (inactive) | 11.5 µM (inactive) | 1.41 µM (inactive) | 20.2 µM (inactive) | 61.8 µM (inactive) | 22.2 µM (inactive) | 91.6 µM (inactive) | 11 µM (inactive) |
| CNC(=O)N(C)COC | > 100 µM (inactive) | > 100 µM (inactive) | > 100 µM (inactive) | > 100 µM (inactive) | > 100 µM (inactive) | > 100 µM (inactive) | > 100 µM (inactive) | > 100 µM (inactive) | – | > 100 µM (inactive) | – | > 100 µM (inactive) | > 100 µM (inactive) | > 100 µM (inactive) | > 100 µM (inactive) | > 100 µM (inactive) | > 100 µM (inactive) | > 100 µM (inactive) | > 100 µM (inactive) | > 100 µM (inactive) |
| O=C(O)CN1CCN(CC(=O)O)CCN(CC(=O)O)CC1 | 4.07 µM (inactive) | > 25.3 µM (inactive) | 5.36 µM (inactive) | 3.03 µM (inactive) | > 100 µM (inactive) | 83.8 µM (inactive) | 16.4 µM (inactive) | 3.49 µM (inactive) | 2.79 µM (inactive) | 4.85 µM (inactive) | 38.2 µM (inactive) | 3.55 µM (inactive) | 8890 µM (inactive) | 1.69 µM (inactive) | 5.81 µM (inactive) | > 43.3 µM (inactive) | > 32 µM (inactive) | > 100 µM (inactive) | 12.6 µM (inactive) | 2.57 µM (inactive) |
| CC(C)CNC1=NCC(C)S1 (stereo unspecified) | – | > 100 µM (inactive) | > 100 µM (inactive) | > 100 µM (inactive) | > 100 µM (inactive) | 79.3 µM (inactive) | > 100 µM (inactive) | > 100 µM (inactive) | > 100 µM (inactive) | > 100 µM (inactive) | > 100 µM (inactive) | > 100 µM (inactive) | > 100 µM (inactive) | > 100 µM (inactive) | > 100 µM (inactive) | > 100 µM (inactive) | > 100 µM (inactive) | > 100 µM (inactive) | > 100 µM (inactive) | > 100 µM (inactive) |
| CO[C@H]1ON=C(c2c(C)cc(C)cc2C)[C@@H]1C1(c2ccccc2)ON=C(c2c(C)cc(C)cc2C)O1 (stereo partly specified) | > 100 µM (inactive) | > 100 µM (inactive) | 37.8 µM (inactive) | > 100 µM (inactive) | > 100 µM (inactive) | > 100 µM (inactive) | > 100 µM (inactive) | > 100 µM (inactive) | – | > 100 µM (inactive) | > 100 µM (inactive) | – | – | 46.3 µM (inactive) | > 100 µM (inactive) | > 100 µM (inactive) | > 100 µM (inactive) | > 100 µM (inactive) | – | > 100 µM (inactive) |
